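These data come from cells grown in 96-well plates and exposed to compound for 48 hours at five concentrations. Here, GI50 denotes the concentration required for 50% inhibition of growth.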 Activity calls are given as the source filed them. Rule as the data show it: active = GI50 up to about 1.1 µM and inactive = higher. Where a SMILES comes first, the peptide text is derived from it. [ ]: non-standard residue; d: D form. The star is where a group is joined. Chg = N[CH](C(=O)O)C1CCCCC1; Cbz = O=C(OCc1ccccc1)*; OBn = c1ccc(CO*)cc1

Here are results for ten compounds from ChEMBL document CHEMBL1201862, “PubChem BioAssay data set” (2004).

Among the test systems are 786-0; CCRF-CEM; COLO 205; EKVX; HCT-116; HL-60; IGROV-1; M14; NCI-H460; NCI-H522; NCI/ADR-RES; OVCAR-4; OVCAR-8; PC-3; RPMI-8226; RXF 393; SK-MEL-28; SK-OV-3; SNB-75; U-251.
Common to all, as to assay: growth of human tumour cells (NCI), 48 h

Consider `Cn1c2ccc(C3=NCCN3)cc2c2cc(C3=NCCN3)ccc21`, for which the GI50 in the assay with 786-0 is 38.7 µM (inactive); in the assay on CCRF-CEM it was < 0.01 µM (active); in the assay with COLO 205 it was 0.724 µM (active); in the assay with EKVX it was 17 µM (inactive); in the assay with HCT-116, 21.9 µM (inactive); in the assay with HL-60, < 0.01 µM (active). Further, the GI50 in the assay with IGROV-1 was 24.5 µM (inactive); with M14, 48.6 µM (inactive); in the assay with NCI-H460 it was 5.38 µM (inactive); in the assay with NCI-H522, 0.0775 µM (active); with NCI/ADR-RES, > 100 µM (inactive); in the assay with OVCAR-4, 13.6 µM (inactive). Also, the GI50 in the assay with OVCAR-8 is 28.9 µM (inactive); in the assay with PC-3 it was 34.3 µM (inactive); in the assay on RPMI-8226 it was 24.6 µM (inactive); in the assay on RXF 393, 34.3 µM (inactive); with SK-MEL-28, 24 µM (inactive); in the assay on SK-OV-3, 44.1 µM (inactive). Moreover, the GI50 is 78.5 µM (inactive) in the assay with SNB-75 and 14.9 µM (inactive) with U-251.

Take `COC(=O)C(Cc1c[nH]c2ccccc12)NP(=O)(O)OCC1OC(n2cc(F)c(=O)[nH]c2=O)CC1O` (stereo not given): the GI50 was 28.2 µM (inactive) with 786-0; 3.59 µM (inactive) in the assay with CCRF-CEM; > 100 µM (inactive) in the assay on COLO 205; > 100 µM (inactive) in the assay on EKVX; 14.5 µM (inactive) with HCT-116; 40.9 µM (inactive) with HL-60. Also, the GI50 in the assay on IGROV-1 was > 71.1 µM (inactive); in the assay with M14, 30.8 µM (inactive); with NCI-H460 it was 1.14 µM (inactive); in the assay on NCI-H522, > 100 µM (inactive); in the assay with NCI/ADR-RES, 37.2 µM (inactive); in the assay with OVCAR-4, > 100 µM (inactive). Also, the GI50 in the assay with OVCAR-8 was 65.9 µM (inactive); in the assay on PC-3, > 51.1 µM (inactive); in the assay with RPMI-8226, 31.3 µM (inactive); in the assay on RXF 393, > 100 µM (inactive); in the assay with SK-MEL-28 it was > 100 µM (inactive); in the assay with SK-OV-3, > 92.5 µM (inactive). The GI50 is > 63.7 µM (inactive) with SNB-75 and > 100 µM (inactive) in the assay with U-251.

`COc1cc2c(NCCCCCCO[N+](=O)[O-])ncnc2c(OC)c1OC`: the GI50 with 786-0 is 26 µM (inactive); in the assay with CCRF-CEM, 19.8 µM (inactive); with COLO 205, 21.4 µM (inactive); in the assay with EKVX it was 22.5 µM (inactive); with HCT-116 it was 20.6 µM (inactive); with HL-60 it was 23.9 µM (inactive). In addition, the GI50 in the assay with IGROV-1 was 23.1 µM (inactive); with M14, 16.9 µM (inactive); with NCI-H460, 22.3 µM (inactive); with NCI-H522, 19.7 µM (inactive); with NCI/ADR-RES, 21.7 µM (inactive); in the assay on OVCAR-4 it was 50.4 µM (inactive). In addition, the GI50 was 23.9 µM (inactive) in the assay on OVCAR-8; 20.7 µM (inactive) in the assay with PC-3; 10.2 µM (inactive) in the assay on RPMI-8226; 17.9 µM (inactive) with RXF 393; 45.1 µM (inactive) with SK-MEL-28; 49.3 µM (inactive) in the assay with SK-OV-3. The GI50 with SNB-75 is > 69.5 µM (inactive); in the assay with U-251, 35.2 µM (inactive).

`CCCCCCCC1C(C)c2c([nH]c3ccccc23)C2C(=O)N(c3ccc(OC)cc3)C(=O)C21` (stereo not given): the GI50 in the assay on 786-0 is 1.66 µM (inactive); in the assay with CCRF-CEM it was 2.61 µM (inactive); in the assay on COLO 205 it was 3.78 µM (inactive); in the assay on EKVX, 3.97 µM (inactive); in the assay on HCT-116 it was 1.79 µM (inactive); with HL-60, 1.95 µM (inactive). The GI50 in the assay on IGROV-1 was > 5.89 µM (inactive); in the assay with M14, 2.74 µM (inactive); in the assay on NCI-H460, 1.87 µM (inactive); in the assay with NCI-H522 it was 4.48 µM (inactive); with NCI/ADR-RES, 1.7 µM (inactive); with OVCAR-4, 2.9 µM (inactive). Moreover, the GI50 in the assay with OVCAR-8 is 2.52 µM (inactive); with PC-3 it was 4.68 µM (inactive); in the assay on RPMI-8226, > 5.73 µM (inactive); in the assay with RXF 393, 2.79 µM (inactive); in the assay on SK-MEL-28, 5.48 µM (inactive); in the assay with SK-OV-3 it was 4.68 µM (inactive). Moreover, the GI50 was 1.95 µM (inactive) in the assay on SNB-75 and 1.92 µM (inactive) in the assay on U-251.

`C=C(CN(C)C)C(=O)c1ccccc1OC`: the GI50 in the assay with 786-0 is 13.9 µM (inactive); in the assay on CCRF-CEM it was 2.51 µM (inactive); in the assay with COLO 205, 3.53 µM (inactive); with EKVX, 25.8 µM (inactive); with HCT-116, 15.6 µM (inactive); in the assay on HL-60, 3.23 µM (inactive). For the same compound, the GI50 in the assay with IGROV-1 is 24.4 µM (inactive); with M14, 12 µM (inactive); with NCI-H460, 38.1 µM (inactive); in the assay on NCI-H522 it was 2.04 µM (inactive); in the assay on NCI/ADR-RES it was 20.7 µM (inactive); with OVCAR-4, 20.6 µM (inactive). The GI50 was 21.6 µM (inactive) in the assay on OVCAR-8; 17.5 µM (inactive) in the assay with PC-3; 5.28 µM (inactive) with RPMI-8226; 7.85 µM (inactive) with RXF 393; 20.2 µM (inactive) with SK-MEL-28; 47.5 µM (inactive) in the assay with SK-OV-3. The results for the GI50 with SNB-75 and with U-251 were 27.2 µM (inactive) and 24.5 µM (inactive), respectively.

As to `CCOC(=O)C1C(=O)CC(O)(c2ccccc2)C(C(=O)OCC)C1c1ccc(N(C)C)cc1` (stereo not given), the GI50 is 26.7 µM (inactive) in the assay on 786-0; 17.3 µM (inactive) with CCRF-CEM; 17.6 µM (inactive) in the assay with COLO 205; 40.9 µM (inactive) with EKVX; 23.8 µM (inactive) with HCT-116; 8.18 µM (inactive) in the assay on HL-60. Also, the GI50 is 31.2 µM (inactive) in the assay with IGROV-1; 35.6 µM (inactive) with M14; 20 µM (inactive) in the assay on NCI-H460; 9.71 µM (inactive) with NCI-H522; 26.6 µM (inactive) in the assay on NCI/ADR-RES; 59.2 µM (inactive) in the assay on OVCAR-4. Further, the GI50 in the assay on OVCAR-8 is 20 µM (inactive); with PC-3 it was 18.3 µM (inactive); in the assay on RPMI-8226 it was 13.3 µM (inactive); with RXF 393 it was 14.7 µM (inactive); with SK-MEL-28, 45.6 µM (inactive); in the assay with SK-OV-3, 18.2 µM (inactive). Besides, the GI50 was 24.9 µM (inactive) in the assay on SNB-75 and 24.7 µM (inactive) with U-251.

As to `COc1cc(/C=C2/SC(c3ccccc3)N(c3ccc(Cl)cc3)C2=O)cc(OC)c1OC` (stereo not given), the GI50 is > 100 µM (inactive) in the assay on 786-0; 2.84 µM (inactive) in the assay with CCRF-CEM; 1.3 µM (inactive) in the assay with COLO 205; > 52.6 µM (inactive) in the assay on EKVX; 0.897 µM (active) in the assay on HCT-116; 10.1 µM (inactive) with HL-60. The GI50 was > 100 µM (inactive) with IGROV-1; 0.964 µM (active) with M14; 8 µM (inactive) with NCI-H460; 18.3 µM (inactive) in the assay with NCI-H522; 25.9 µM (inactive) in the assay on NCI/ADR-RES; 7.98 µM (inactive) with OVCAR-4. The GI50 is > 100 µM (inactive) in the assay with OVCAR-8; 28.6 µM (inactive) in the assay on PC-3; 2.99 µM (inactive) in the assay with RPMI-8226; 49.7 µM (inactive) in the assay on RXF 393; > 56.6 µM (inactive) in the assay on SK-MEL-28; 9.48 µM (inactive) in the assay with SK-OV-3. The GI50 in the assay with SNB-75 was 95.3 µM (inactive); with U-251, > 72.6 µM (inactive).

Consider `O=[N+]([O-])c1cc(F)ccc1S(=O)(=O)c1ccccc1`, for which the GI50 in the assay on 786-0 was > 10 µM (inactive); in the assay on CCRF-CEM, > 10 µM (inactive); in the assay on COLO 205, > 10 µM (inactive); with EKVX, 5.14 µM (inactive); in the assay with HCT-116, > 10 µM (inactive); with HL-60 it was > 10 µM (inactive). Also, the GI50 in the assay on IGROV-1 was > 10 µM (inactive); in the assay with M14, > 10 µM (inactive); with NCI-H460, > 10 µM (inactive); in the assay with NCI-H522 it was 2.22 µM (inactive); in the assay on NCI/ADR-RES it was > 10 µM (inactive); in the assay on OVCAR-4, > 10 µM (inactive). Besides, the GI50 with OVCAR-8, with PC-3, with RPMI-8226, in the assay with RXF 393, in the assay on SK-MEL-28 and with SK-OV-3 was > 10 µM (inactive) each time. Besides, the GI50 with SNB-75 and in the assay on U-251 was > 10 µM (inactive) each time.

For the compound `CCCCCCCCCCCCCCCCCC(=O)OCC(COC1OC(CS(=O)(=O)O)C(O)C(O)C1O)OC(=O)CCCCCCCCCCCCCCCCC` (stereo not given), the GI50 with 786-0, with CCRF-CEM, with COLO 205, with EKVX, in the assay with HCT-116 and in the assay on HL-60 was > 100 µM (inactive) each time. Moreover, the GI50 in the assay on IGROV-1, in the assay with M14, in the assay with NCI-H460, in the assay with NCI-H522, in the assay on NCI/ADR-RES and with OVCAR-4 was > 100 µM (inactive) in each case. Moreover, the GI50 with OVCAR-8, in the assay on PC-3, in the assay on RPMI-8226, with RXF 393, in the assay on SK-MEL-28 and with SK-OV-3 was > 100 µM (inactive) each time. The GI50 is 10.4 µM (inactive) in the assay with SNB-75 and > 100 µM (inactive) in the assay on U-251.

With `COC(=O)C(NC(=O)C(CC(=O)OCc1ccccc1)NC(=O)OCc1ccccc1)C1CCCCC1` (stereo not given) (Cbz-Asp(OBn)-[Chg]-OMe; configuration not given here), the GI50 in the assay with 786-0, in the assay on CCRF-CEM, in the assay on COLO 205, in the assay on EKVX, in the assay on HCT-116 and in the assay on HL-60 was > 100 µM (inactive) throughout. The GI50 in the assay with IGROV-1, in the assay on M14, with NCI-H460, with NCI-H522, in the assay on NCI/ADR-RES and in the assay on OVCAR-4 was > 100 µM (inactive) in each case. Moreover, the GI50 was > 100 µM (inactive) in the assay on OVCAR-8; > 100 µM (inactive) with PC-3; 48.2 µM (inactive) in the assay with RPMI-8226; > 100 µM (inactive) in the assay with RXF 393; > 100 µM (inactive) in the assay with SK-MEL-28; > 100 µM (inactive) in the assay with SK-OV-3. The GI50 is 62.8 µM (inactive) in the assay on SNB-75 and > 100 µM (inactive) in the assay with U-251.
